Reference: patent US8946299B2, “Use of calixarenes associated with an antibiotic in the treatment of bacterial infections” (Universite de Lorraine, priority 2011, dated 2015)
Values joined by “and” are separate entries in the source; they are usually repeats but may differ in a detail not shown here. Equal values may be shown once. Read-outs that look alike come from different tables or passages of the source.

What was measured:
[1] = test system: Staphylococcus aureus strain ATCC 29213 (wild type); test: Chessboard technique: MICs alone and synergism of Cx1 combinations; assay type: cell-based; conditions: for Initials MIC (antibiotic): antibiotic used alone, second figure of the cell
Text: (§1) Three reference strains were used, corresponding to those studied for the MICs and MBCs (Minimum Bactericidal Concentration): Escherichia coli ATCC 25922, Staphylococcus aureus ATCC 29213, Pseudomonas aeruginosa ATCC 27853. For each of these strains 3 corresponding clinical isolates were chosen, having various antibiotic-resistance profiles, routinely used in standard fashion: • EcR1, EcR2, EcR3; • SaR1, SaR3, SaR4; • PaR2, PaR3, PaR5.
(§2) 1.3. Procedure: Chessboard Technique
(§3) The bacterial suspension is transferred to a 15 mL Falcon tube, centrifuged for 10 min at 4500 g, then the pellet is re-suspended in 1 mL of sterile distilled water. Suitable dilutions are then prepared in order to obtain a bacterial inoculum between 5·10^5 and 5·10^6 CFU/mL.
(§4) The MICs of the antibiotics were previously determined for each strain, by the method of microdilution in a liquid medium (CLSI (Clinical and Laboratory Standards Institute), 2003).
(§5) The same procedure is followed for the Cx1. […] Thus 64 ATB/Cx1 combinations are obtained.
(§6) The final volume contained in each of the wells must be 100 μL. Two controls must be present on each plate: • column 1 and 12: medium control • column 2 and 11: medium+bacteria control
(§7) Cx1: […] in the wells of […], starting with the lowest concentration.
(§8) ATB: 25 μL in the wells of rows H to A (columns 3 to 11), starting with the lowest concentration.
(§9) 50 μL in each of the wells of columns 2 to 11.
(§10) D2: Reading the Turbidity at 540 Nm.
(§11) The FIC (Fractional Inhibitory Concentration Index) value is determined by the following formula:
(§12) [formula] MICA in combination MICA alone MICB in combination MICB alone
(§13) When FIC≦0.5, there is a synergistic effect between antibiotic A and antibiotic B.
(§14) When 0.5<FIC≦1, there is an additive effect between antibiotic A and antibiotic B.
(§15) When 1<FIC≦4, there is an indifferent effect between antibiotic A and antibiotic B.
(§16) When FIC>4, there is an antagonistic effect between antibiotic A and antibiotic B.
(§17) For each strain and each antibiotic/Cx1 combination, the experiments were repeated a minimum of 3 times.

[2] = test system: SaR3: Meticillin-Resistant Staphylococcus aureus; test: Antibiogram by the disk diffusion technique; assay type: cell-based; conditions: Table E1; strain SaR3
[3] = test system: SaR1: Meticillin-Resistant Staphylococcus aureus without Associated Resistance; test: Antibiogram by the VITEK 2 system; assay type: cell-based; conditions: Table D1; strain SaR1
Method: 5.4 SaR1: Meticillin-Resistant Staphylococcus aureus without Associated Resistance
The bacterial and antibiogram identification is carried out by the VITEK 2 system (bioMérieux)
February 2006: Detection of the gene mecA by the PCR technique: POSITIVE Expert finding July 2006: totally typical phenotype: modification of the PLPs The fluctuations relative to the type of associated resistance for certain strains between Tables D1 and D2 are due to the development of the French (CA-SFM), European (EUCAST) and American (CLSI) recommendations for the categorization of bacterial strains. 5.5 SaR3: Meticillin-Resistant Staphylococcus aureus Having an Associated Resistance to the Aminoglycosides and Fluoroquinolones The bacterial and antibiogram identification is carried out by the VITEK 2 system (bioMérieux) and by the disk diffusion technique

[4] = test system: MRSA strain having a resistance to the aminoglycosides and fluoroquinolones (SaR3); test: Chessboard technique: MICs alone and synergism of Cx1 combinations; assay type: cell-based, Staphylococcus aureus; conditions: for MIC (antibiotic): antibiotic used alone, second figure of the cell
Text: as §1, §2, §3, §4, §5, §6, §7, §8, §9, §10, §11, §12, §13, §14, §15, §16, §17

[5] = test system: MRSA strain without associated resistance (SaR1); test: as above; assay type: cell-based, Staphylococcus aureus; conditions: for MIC (antibiotic): antibiotic used alone, second figure of the cell
Text: as §1, §2, §3, §4, §5, §6, §7, §8, §9, §10, §11, §12, §13, §14, §15, §16, §17

[6] = test system: MRSA strain having a resistance to the aminoglycosides, fluoroquinolones, macrolides-lincosamides-synergistins and ofloxacin (SaR4); test: as above; assay type: cell-based, Staphylococcus aureus; conditions: n = 4; for MIC (antibiotic): antibiotic used alone, second figure of the cell
Text: as §1, §2, §3, §4, §5, §6, §7, §8, §9, §10, §11, §12, §13, §14, §15, §16, §17

[7] = test system: Escherichia coli, Staphylococcus aureus and Pseudomonas aeruginosa strains; test: Chessboard technique, summary over all strains and combinations tested; assay type: cell-based
Text: as §1, §2
The FIC (Fractional Inhibitory Concentration Index) value is determined by the following formula: […]
as §17

[8] = test system: Pseudomonas aeruginosa strain having a resistance to β-lactams (including the carbapenems), aminoglycosides, the trimethoprim-sulphamethoxazole combination and …; test: Chessboard technique: MICs alone and synergism of Cx1 combinations; assay type: cell-based; conditions: n = 4
Text: as §1, §2, §3, §4, §5, §6, §7, §8, §9, §10, §11, §12, §13, §14, §15, §16, §17

[9] = test system: mucoid strain of Pseudomonas aeruginosa having a resistance to rifampicin and the trimethoprim-sulphamethoxazole combination (PaR5); test: as above; assay type: cell-based; conditions: n = 4
Text: as §1, §2, §3, §4, §5, §6, §7, §8, §9, §10, §11, §12, §13, §14, §15, §16, §17

[10] = test system: cephalosporinase-hyperproducing strain of Escherichia coli (EcR2); test: as above; assay type: cell-based; conditions: n = 4; for Initial MICs (antibiotic): antibiotic used alone, second figure of the cell
Text: as §1, §2, §3, §4, §5, §6, §7, §8, §9, §10, §11, §12, §13, §14, §15, §16, §17

[11] = test system: Pseudomonas aeruginosa strain ATCC 27853 (wild type); test: as above; assay type: cell-based
Text: as §1, §2, §3, §4, §5, §6, §7, §8, §9, §10, §11, §12, §13, §14, §15, §16, §17

[12] = test system: ESBL-producing strain of Escherichia coli (EcR3); test: as above; assay type: cell-based; conditions: n = 4; for Initial MICs (antibiotic): antibiotic used alone, second figure of the cell
Text: as §1, §2, §3, §4, §5, §6, §7, §8, §9, §10, §11, §12, §13, §14, §15, §16, §17

[13] = test system: EcR1: Penicillinase-Producing Escherichia coli without Associated Resistance; test: Antibiogram by the disk diffusion technique; assay type: cell-based; conditions: for Results (diameter): Table A1, category from diameter vs Dmin Dmax
Method: (§18) 5. Identification and Antibiogram 5.1 EcR1: Penicillinase-Producing Escherichia coli without Associated Resistance
(§19) The bacterial and antibiogram identification is carried out by the VITEK 2 system (bioMérieux) and by the disk diffusion technique.

[14] = test system: EcR2: Cephalosporinase-Hyperproducing Escherichia coli; test: Antibiogram by the disk diffusion technique; assay type: cell-based; conditions: Table B2; strain EcR2; diameters
Method: 5.2 EcR2: Cephalosporinase-Hyperproducing Escherichia coli Having an Associated Resistance to the Aminoglycosides, Quinolones and the Trimethoprim-Sulphamethoxazole Combination
The bacterial and antibiogram identification is carried out by the VITEK 1 system (bioMérieux) and by the disk diffusion technique

[15] = test system: Pseudomonas aeruginosa strain having a resistance to β-lactams, the trimethoprim-sulphamethoxazole combination and fosfomycin (PaR2); assay type: cell-based; conditions: n = 4
Text: as §1, §2, §3, §4, §5, §6, §7, §8, §9, §10, §11, §12, §13, §14, §15, §16, §17

[16] = test system: EcR1: Penicillinase-Producing Escherichia coli without Associated Resistance; test: Antibiogram, MIC by the VITEK 2 system; assay type: cell-based; conditions: Table A1, category from MIC
Method: as §18, §19

[17] = test system: SaR4: Meticillin-Resistant Staphylococcus aureus; test: Antibiogram, MIC by the VITEK 2 system; assay type: cell-based
Method: 5.6 SaR4: Meticillin-Resistant Staphylococcus aureus Having an Associated Resistance to the Aminoglycosides, Fluoroquinolones, Macrolides-Lincosamines-Synergistins and Ofloxacin The bacterial and antibiogram identification is carried out by the VITEK 2 system (bioMérieux) and by the disk diffusion technique
5.7 PaR2: Pseudomonas aeruginosa Having an Associated Resistance to the β-Lactams, the Trimethoprim-Sulphamethoxazole Combination and Fosfomycin The bacterial and antibiogram identification is carried out by the VITEK 2 system (bioMérieux) and by the disk diffusion technique

[18] = Chessboard technique: MICs alone and synergism of Cx1 combinations; assay type: cell-based, Staphylococcus aureus; conditions: Staphylococcus aureus, MRSA, read-out: MIC (antibiotic)
Text: as §1, §2, §3, §4, §5, §6, §7, §8, §9, §10, §11, §12, §13, §14, §15, §16, §17

[19] = test system: Escherichia coli strain ATCC 25922 (wild type); test: as above; assay type: cell-based
Text: as §1, §2, §3, §4, §5, §6, §7, §8, §9, §10, §11, §12, §13, §14, §15, §16, §17

[20] = test system: penicillinase-producing strain of Escherichia coli without associated resistance (EcR1); test: as above; assay type: cell-based; conditions: n = 4
Text: as §1, §2, §3, §4, §5, §6, §7, §8, §9, §10, §11, §12, §13, §14, §15, §16, §17

[21] = test system: PaR5: Pseudomonas aeruginosa; test: Antibiogram by the disk diffusion technique; assay type: cell-based; design: unit not given here; conditions: Table I1; strain PaR5
[22] = antibiotic used alone, second figure of the cell
[23] = antibiotic used alone, second figure of the cell, n = 4
[24] = Staphylococcus aureus, MRSA, read-out: MIC (antibiotic)
[25] = Cx1 used alone, first figure of the cell, n = 4
[26] = Cx1 used alone, first figure of the cell

CC1(C)S[C@@H]2[C@H](NC(=O)Cc3ccccc3)C(=O)N2[C@H]1C(=O)O [Penicillin G]
Initials MIC (antibiotic) ([1]; n = 4): 1 µg/mL | Diameter [2]: 26 | Diameter [3]: 28 | MIC (antibiotic) ([4]; n = 4): 0.5 µg/mL | MIC (antibiotic) ([5]; n = 4): 0.5 µg/mL | MIC (antibiotic) [6]: 4 µg/mL

NC[C@H]1O[C@H](O[C@H]2[C@H](O)[C@@H](O[C@H]3O[C@H](CO)[C@@H](O)[C@H](N)[C@H]3O)[C@H](N)C[C@@H]2N)[C@H](N)C[C@@H]1O [Tobramycin]
nature of the interaction between Cx1 and the antibiotic [7]: synergism | MIC (antibiotic) [8, 22]: 64 µg/mL | MIC (antibiotic) [9, 22]: 1 µg/mL | Initial MICs (antibiotic) [10]: 4 mg/L | MIC (antibiotic) [11, 23]: 0.5 µg/mL | Initial MICs (antibiotic) [12]: 4 mg/L | Results (diameter) [13]: Susceptible | diameter in mm [14]: 10 mm | MIC (antibiotic) [15, 22]: 1 µg/mL | Results (MIC) [16]: Susceptible

CN[C@H](CC(C)C)C(=O)N[C@H]1C(=O)N[C@@H](CC(N)=O)C(=O)N[C@H]2C(=O)N[C@H]3C(=O)N[C@H](C(=O)N[C@H](C(=O)O)c4cc(O)cc(O)c4-c4cc3ccc4O)[C@H](O)c3ccc(c(Cl)c3)Oc3cc2cc(c3O[C@@H]2O[C@H](CO)[C@@H](O)[C@H](O)[C@H]2O[C@H]2C[C@](C)(N)[C@H](O)[C@H](C)O2)Oc2ccc(cc2Cl)[C@H]1O [Vancomycin]
MIC ([1]; Staphylococcus aureus, ATCC29213, read-out: Initials MIC (antibiotic)): 0.5 µg/mL | MIC ([17]; Staphylococcus aureus, read-out: MIC mg/L): 1 mg/L | MIC ([17]; Table F2, strain SaR4, cells of the mixed column that are MICs): 1 mg/L | MIC [4, 24]: 0.25 µg/mL | MIC [18]: 0.25 µg/mL | MIC [5, 24]: 0.25 µg/mL

Gentamicin
nature of the interaction between Cx1 and the antibiotic [7]: synergism | Initial MICs (antibiotic) [19, 23]: 0.125 mg/L | Initials MIC (antibiotic) ([1]; n = 4): 0.25 µg/mL | Initial MICs (antibiotic) [20, 22]: 0.125 mg/L | Initial MICs (antibiotic) [10]: 2/2 mg/L | Initial MICs (antibiotic) [12]: 2/2 mg/L | Diameter [2]: 20 | Diameter [3]: 23 | Results (diameter) [13]: Susceptible | Diameter ([13]; Table A1, disk diffusion): 20 | Results (MIC) [16]: Susceptible | MIC (antibiotic) ([4]; n = 4): 0.125 µg/mL | MIC (antibiotic) ([5]; n = 4): 0.25 µg/mL | MIC (antibiotic) [6]: 0.25 µg/mL | Diameter [21]: 25

Pristinamycin
Diameter [2]: 23 | Diameter [3]: 25

para-guanidinoethylcalix[4]arene [Cx1]
Initial MICs (Cx1) ([19]; Cx1 alone, E. coli ATCC 25922): 4 mg/L | Initial MICs (Cx1) [19, 25]: 4 mg/L and 2 mg/L and 4/4 mg/L | Initial MICs (Cx1) ([1]; Cx1 alone, S. aureus ATCC 29213): 8 mg/L | Initials MIC (Cx1) [1, 25]: 8 mg/L and 8/8 mg/L | Initial MICs (Cx1) [20, 26]: 2 mg/L | MIC (Cx1) [8, 26]: 32 mg/L and 32/32 mg/L | MIC (Cx1) [9, 26]: 32/32 mg/L and 32 mg/L | Initial MICs (Cx1) [10, 26]: 2 mg/L and 2/2 mg/L | Initial MICs (Cx1) ([11]; Cx1 alone, P. aeruginosa ATCC 27853): 32/32 mg/L and 32 mg/L | MIC (Cx1) [11, 25]: 32 µg/mL | Initial MICs (Cx1) [12, 26]: 2 mg/L and 2/2 mg/L | MIC (Cx1) [15, 26]: 32 µg/mL | MIC (Cx1) [4, 25]: 8 mg/L and 8/8 mg/L | MIC (Cx1) [5, 25]: 8 µg/mL | MIC (Cx1) [6, 26]: 8 µg/mL
